A short description of data set [1]: Half life in 0.1 N aqueous HCl buffer at pH 1. As to conditions: for half-life: 0.1 N aqueous HCl buffer. Type of data set: physicochemical.
Data set [2] can be described thus: Solubility of compound in acetate buffer at pH 4. Type of data set: physicochemical.
Data set [3] in a line: Relative oral bioavailability in Sprague-Dawley rat assessed as atazanavir level at 3 mg/kg equiv of atazanavir. Type of data set: ADME, organism-based. As to conditions: in vivo.
A short description of data set [4]: Trough plasma concentration in Sprague-Dawley rat assessed as atazanavir level at 3 mg/kg equiv of atazanavir administered orally measured after 24 hrs. The following applies: in vivo, po; for concentration: read-out: Cmin; for Cmin: BLD = below limit of detection. Type of data set: ADME, organism-based.
Data set [5] is described as follows: Tmax in Sprague-Dawley rat assessed as atazanavir level at 3 mg/kg equiv of atazanavir administered orally. Type of data set: ADME, organism-based. As to conditions: in vivo, po.
The nature of data set [6]: Total AUC in Sprague-Dawley rat assessed as ratio of atazanavir to parent level at 3 mg/kg equiv of atazanavir administered orally. It counts as ADME, organism-based. As to conditions: in vivo, po.
A short description of data set [7]: Half life in acetate buffer at pH 4. It counts as physicochemical. The following applies: for half-life: acetate buffer; for t1/2: buffer.
Data set [8] is described as follows: Solubility of compound in 0.1 N aqueous HCl buffer at pH 1. It counts as physicochemical.
A short description of data set [9]: Half life in phosphate buffer at pH 6.5. It counts as physicochemical. The following applies: for half-life: phosphate buffer; for t1/2: buffer.
Data set [10] can be described thus: Solubility of compound in phosphate buffer at pH 6.5. It counts as physicochemical.
Data set [11] is described as follows: Ratio of AUClast in Sprague-Dawley rat assessed as atazanavir to parent level at 3 mg/kg equiv of atazanavir administered orally. It counts as ADME, organism-based. As to conditions: in vivo, po.
The nature of data set [12]: AUClast in Sprague-Dawley rat assessed as atazanavir level at 3 mg/kg equiv of atazanavir administered orally. Type of data set: ADME, organism-based. More on the design: route oral, time 0 - last, dose 3 mg/kg(equiv). The following applies: in vivo, po.
Data set [13] can be described thus: Cmax in Sprague-Dawley rat assessed as atazanavir level at 3 mg/kg equiv of atazanavir administered orally. More on the design: route oral, dose 3 mg/kg(equiv). It counts as ADME, organism-based. As to conditions: in vivo, po.
The nature of data set [14]: Trough plasma concentration in Sprague-Dawley rat at 30 mg/kg, po measured after 24 hrs. It counts as ADME, organism-based. As to conditions: read-out: Cmin.
Data set [15] is described as follows: Stability of compound in phosphate buffer at pH 6.5. Type of data set: physicochemical.
Data set [16] can be described thus: Stability of compound in acetate buffer at pH 4. Type of data set: physicochemical.
Data set [17] in a line: Stability of compound in 0.1 N aqueous HCl buffer at pH 1. It counts as physicochemical.
Data set [18] can be described thus: Stability in rat plasma measured after 60 mins. Type of data set: ADME, cell-free. The following applies: 1 h.
A short description of data set [19]: Solubility of compound in fasted state simulated intestinal fluid. It counts as physicochemical. The following applies: simulated gi fluid.
Data set [20] is described as follows: Half life in rat hepatocytes measured after 120 mins. It counts as ADME, cell-based, Hepatocyte.
The nature of data set [21]: Half life in rat plasma measured after 60 mins. It counts as ADME, cell-free.
Where [22] appears, read: acetate buffer, read-out: solubility.
[23] abbreviates: 0.1 N aqueous HCl buffer, read-out: solubility.

Values after ≈ are worked out from the molar mass of the structure shown.

Consider eleven compounds from ChEMBL document CHEMBL4706615, “(Carbonyl)oxyalkyl linker-based amino acid prodrugs of the HIV-1 protease inhibitor atazanavir that enhance oral bioavailability and plasma trough concentration” (Eur J Med Chem, 2020).

Take `COC(=O)N[C@H](C(=O)N[C@@H](Cc1ccccc1)[C@H](CN(Cc1ccc(-c2ccccn2)cc1)NC(=O)[C@@H](NC(=O)OC)C(C)(C)C)OC(=O)OCOC(=O)[C@H](C(C)C)N(C)C)C(C)(C)C`: the half-life in data set [1] was above 500 h; in data set [7] it was above 500 h; in data set [9] it was 104 h. Further, the values for the solubility in [2] (setting [22]), in [8] (setting [23]) and in data set [10] were above 450 µg/mL, above 1200 µg/mL and 5 µg/mL (≈ 5.52 µM), respectively. Besides, in data set [3], the F came out at 46%. The concentration in data set [4] was 1.9 nM. The time of peak concentration (Tmax) in data set [5] turned out to be 0.4 h. Also, the “Ratio AUC” value amounted to 7.7 in [6] and 2.3 in [11]. Besides, the AUClast in [12] is 0.883 µM·h. Moreover, the highest concentration (Cmax) in data set [13] was 573 nM.

Consider `COC(=O)N[C@H](C(=O)N[C@@H](Cc1ccccc1)[C@H](CN(Cc1ccc(-c2ccccn2)cc1)NC(=O)[C@@H](NC(=O)OC)C(C)(C)C)OC(=O)OC(C)OC(=O)[C@@H](C(C)C)N(C)C)C(C)(C)C` (stereo in doubt; 23), for which the half-life in data set [1], in [7] and in [9] was above 500 h throughout. Besides, the solubility in [2] (setting [22]) is above 600 µg/mL; in [8] (setting [23]), above 1700 µg/mL; in data set [10] it was below 1 µg/mL.

Take `COC(=O)N[C@H](C(=O)N[C@@H](Cc1ccccc1)[C@@H](O)CN(Cc1ccc(-c2ccccn2)cc1)NC(=O)[C@@H](NC(=O)OC)C(C)(C)C)C(C)(C)C` [ATAZANAVIR]: the solubility in [2] (setting [22]) and in data set [10] was below 1 µg/mL each time. Also, in [14], the concentration at 24 h worked out at 5 nM.

Consider `COC(=O)N[C@H](C(=O)N[C@@H](Cc1ccccc1)[C@H](CN(Cc1ccc(-c2ccccn2)cc1)NC(=O)[C@@H](NC(=O)OC)C(C)(C)C)OC(=O)OC(C)OC(=O)[C@@H](N)C(C)C)C(C)(C)C` (stereo in doubt; 18), for which the half-life in data set [1] and in [7] was above 500 h in each case. Also, the solubility was above 3000 µg/mL in data set [2] (setting [22]) and above 1200 µg/mL in data set [8] (buffer). The F in data set [3] worked out at 53%. Moreover, in data set [4], the Cmin result is “Bld”. Moreover, the Tmax in data set [5] was 0.8 h. For the same compound, in [6], the “Ratio AUC” value is listed as 2.6. The t1/2 in data set [9] was above 10.9 h. Moreover, in data set [12], the AUClast amounted to 1.013 µM·h. Further, the maximum concentration (Cmax) in data set [13] stood at 320 nM.

Regarding `COC(=O)N[C@H](C(=O)N[C@@H](Cc1ccccc1)[C@H](CN(Cc1ccc(-c2ccccn2)cc1)NC(=O)[C@@H](NC(=O)OC)C(C)(C)C)OC(=O)OCOC(=O)[C@@H](N)C(C)C)C(C)(C)C`, the Stabilty result in data set [15], in [16] and in data set [17] was “Unstable” each time.

With `COC(=O)N[C@H](C(=O)N[C@@H](Cc1ccccc1)[C@H](CN(Cc1ccc(-c2ccccn2)cc1)NC(=O)[C@@H](NC(=O)OC)C(C)(C)C)OC(=O)OCOC(=O)[C@@H](C(C)C)N(C)C)C(C)(C)C`, the half-life was above 500 h in data set [1], 376 h in data set [7] and 64 h in data set [9]. The solubility in [2] (setting [22]) is above 500 µg/mL; in data set [8] (setting [23]), above 1800 µg/mL; in [10] it was 6 µg/mL (≈ 6.62 µM). Besides, the F in [3] is on record as 36%. For the same compound, the Cmin entry in [4] is listed as “Bld”. Also, the Tmax in data set [5] turned out to be 0.5 h. The “Ratio AUC” value in data set [6] stood at 5.3; in data set [11], 2. For the same compound, the AUClast in [12] turned out to be 0.689 µM·h. Moreover, in data set [13], the maximum concentration (Cmax) was found to be 639 nM.

Take `COC(=O)N[C@H](C(=O)N[C@@H](Cc1ccccc1)[C@H](CN(Cc1ccc(-c2ccccn2)cc1)NC(=O)[C@@H](NC(=O)OC)C(C)(C)C)OC(=O)OC(C)OC(=O)[C@H](C(C)C)N(C)C)C(C)(C)C` (stereo in doubt; 22): the solubility in data set [2] (buffer) was above 490 µg/mL; in data set [8] (buffer) it was above 1800 µg/mL; in data set [19], 11 µg/mL (≈ 12 µM). Further, the F in data set [3] is listed as 103%. Besides, in [4], the concentration was found to be 16.7 nM. Besides, the Tmax in data set [5] amounted to 0.8 h. Also, the “Ratio AUC” value in data set [6] worked out at 92.1; in data set [11], 17. For the same compound, the figures for the t1/2 in [7] and in data set [9] were 334.3 h and 214.9 h, respectively. The Stabilty entry in data set [18] is recorded as “Stable”. For the same compound, the AUClast in [12] worked out at 1.958 µM·h. Also, the Cmax in data set [13] is 398 nM.

For `COC(=O)N[C@H](C(=O)N[C@@H](Cc1ccccc1)[C@H](CN(Cc1ccc(-c2ccccn2)cc1)NC(=O)[C@@H](NC(=O)OC)C(C)(C)C)OC(=O)OC(C)OC(=O)[C@H](C(C)C)N(C)C)C(C)(C)C` (stereo in doubt; 21), the half-life in data set [1] was above 500 h; in [20], 0.417 h; in data set [21], 0.683 h; in [7], above 500 h. Further, the solubility in data set [2] (setting [22]) was above 980 µg/mL; in data set [8] (setting [23]), above 1900 µg/mL; in data set [10], below 1 µg/mL; in data set [19], 3 µg/mL (≈ 3.26 µM). Besides, the F in data set [3] is listed as 58%. Further, in [4], the concentration worked out at 1.9 nM. In addition, in data set [5], the time to peak (Tmax) was determined as 0.6 h. Besides, the “Ratio AUC” value was 5.7 in data set [6] and 1 in data set [11]. In [9], this compound gave a t1/2 above 500 h. Besides, the AUClast in [12] was 1.097 µM·h. In addition, in data set [13], the peak concentration (Cmax) came to 581 nM.

With `COC(=O)N[C@H](C(=O)N[C@@H](Cc1ccccc1)[C@H](CN(Cc1ccc(-c2ccccn2)cc1)NC(=O)[C@@H](NC(=O)OC)C(C)(C)C)OC(=O)OCOC(=O)[C@@H](N)Cc1ccccc1)C(C)(C)C`, the results for the half-life in data set [1] and in data set [7] were 17 h and 16.5 h, respectively.

In data set [1] (buffer), `COC(=O)N[C@H](C(=O)N[C@@H](Cc1ccccc1)[C@H](CN(Cc1ccc(-c2ccccn2)cc1)NC(=O)[C@@H](NC(=O)OC)C(C)(C)C)OC(=O)OC(C)OC(=O)[C@@H](C(C)C)N(C)C)C(C)(C)C` (stereo in doubt; 24) displayed a t1/2 above 500 h. Further, the solubility in [2] (buffer) is above 540 µg/mL; in data set [8] (buffer), above 2600 µg/mL. Moreover, in data set [3], the F is recorded as 91%. Besides, the concentration in data set [4] amounted to 24 nM. In addition, the Tmax in [5] was determined as 0.5 h. Moreover, the “Ratio AUC” value in data set [6] worked out at 104.8; in [11], 22. The AUClast in data set [12] was 1.737 µM·h. The Cmax in [13] turned out to be 324 nM.

For the compound `COC(=O)N[C@H](C(=O)N[C@@H](Cc1ccccc1)[C@H](CN(Cc1ccc(-c2ccccn2)cc1)NC(=O)[C@@H](NC(=O)OC)C(C)(C)C)OC(=O)OC(C)OC(=O)[C@@H](N)C(C)C)C(C)(C)C` (stereo in doubt; 20), the solubility in data set [2] (buffer) was above 1800 µg/mL; in data set [8] (buffer), above 3200 µg/mL. The t1/2 in data set [7] was 334.3 h; in [9], 5.3 h.
